The text below walks through data of publication PMC9940446 (Bioorganic & medicinal chemistry letters, 2022).

One data set has as its target MDM2. To be noted: read-out: binding affinity towards MDM2 (Kd); ref 22 (Thean et al.); cited from earlier work.
Data set [1] is described as follows: Tumor uptake and tissue distribution in mice bearing SJSA-1 xenografts. The conditions noted are these: athymic, mouse, iv, 166.5 kBq, total radioactivity. In kind it is in vivo, athymic mice.
Data set [2] is described as follows: In vivo metabolic stability. To be noted: athymic mice without tumors, i.v., plasma 4 h post-injection; RP-HPLC; n = 2/time point.
The nature of data set [3]: Lipophilicity, shake-flask n-octanol/PBS. To be noted: n-octanol/phosphate-buffered saline, pH 7.4. It counts as physicochemical.
Data set [4] deals with SJSA-1 osteosarcoma cell line (MDM2-amplified, wild-type p53). In kind it is cell-based, human. To be noted: SJSA-1 cells, 50 μM VIP116, 2 h incubation.
The subject of data set [5] is SJSA-1 human osteosarcoma xenografts. Description: Tumor uptake and tissue distribution in mice bearing SJSA-1 xenografts. In kind it is in vivo, athymic mice.

For `CC(=O)N[C@@H](CCCCN)C(=O)NCCCCCC(=O)N[C@H](C(=O)N[C@@H](CO)C(=O)N[C@@H](Cc1ccccc1)C(=O)N[C@]1(C)CCCCCCC=CCCC[C@@](C)(C(=O)N[C@@H](CCC(=O)O)C(=O)N[C@@H](CC(N)=O)C(=O)N[C@@H](Cc2ccccc2)C(N)=O)NC(=O)[C@H](CC(C)C)NC(=O)[C@H](CC(C)C)NC(=O)[C@H](C)NC(=O)[C@H](Cc2c[nH]c3ccccc23)NC(=O)[C@H](Cc2ccc(O)cc2)NC(=O)[C@H](CCC(=O)O)NC1=O)[C@@H](C)O` [VIP116], at MDM2, the Kd is 15.1 ± 1.7 nM.
With `CC(=O)N[C@@H](CCCCNC(=O)c1cccc(I)c1)C(=O)NCCCCCC(=O)N[C@H](C(=O)N[C@@H](CO)C(=O)N[C@@H](Cc1ccccc1)C(=O)N[C@]1(C)CCCCCCC=CCCC[C@@](C)(C(=O)N[C@@H](CCC(=O)O)C(=O)N[C@@H](CC(N)=O)C(=O)N[C@@H](Cc2ccccc2)C(N)=O)NC(=O)[C@H](CC(C)C)NC(=O)[C@H](CC(C)C)NC(=O)[C@H](C)NC(=O)[C@H](Cc2c[nH]c3ccccc23)NC(=O)[C@H](Cc2ccc(O)cc2)NC(=O)[C@H](CCC(=O)O)NC1=O)[C@@H](C)O` [[*I]SIB-VIP116] [listing 1 of 2 here], the tissue uptake at 0.5 h in data set [1] (blood) is 8.33 ± 1.18 %ID/g. The tissue uptake at 2 h in data set [1] (tumor) was 2.19 ± 0.56 %ID/g.
As for `CC(=O)N[C@@H](CCCCNC(=O)c1cccc(I)c1)C(=O)NCCCCCC(=O)N[C@H](C(=O)N[C@@H](CO)C(=O)N[C@@H](Cc1ccccc1)C(=O)N[C@]1(C)CCCCCCC=CCCC[C@@](C)(C(=O)N[C@@H](CCC(=O)O)C(=O)N[C@@H](CC(N)=O)C(=O)N[C@@H](Cc2ccccc2)C(N)=O)NC(=O)[C@H](CC(C)C)NC(=O)[C@H](CC(C)C)NC(=O)[C@H](C)NC(=O)[C@H](Cc2c[nH]c3ccccc23)NC(=O)[C@H](Cc2ccc(O)cc2)NC(=O)[C@H](CCC(=O)O)NC1=O)[C@@H](C)O` [[*I]SIB-VIP116] [listing 2 of 2 here], the “% of radioactivity in plasma as intact labeled peptide” value in data set [2] was “about 80%”.
With `CC(=O)N[C@@H](CCCCNC(=O)c1cccc(I)c1)C(=O)NCCCCCC(=O)N[C@H](C(=O)N[C@@H](CO)C(=O)N[C@@H](Cc1ccccc1)C(=O)N[C@]1(C)CCCCCCC=CCCC[C@@](C)(C(=O)N[C@@H](CCC(=O)O)C(=O)N[C@@H](CC(N)=O)C(=O)N[C@@H](Cc2ccccc2)C(N)=O)NC(=O)[C@H](CC(C)C)NC(=O)[C@H](CC(C)C)NC(=O)[C@H](C)NC(=O)[C@H](Cc2c[nH]c3ccccc23)NC(=O)[C@H](Cc2ccc(O)cc2)NC(=O)[C@H](CCC(=O)O)NC1=O)[C@@H](C)O` [[^125I]SIB-VIP116] [listing 1 of 2 here], the pH-dependent lipophilicity (logD) in data set [3] amounted to 1.45 ± 0.05. The tissue uptake at 0.5 h came out at 0.61 ± 0.21 %ID/g in data set [1] (bladder); 0.38 ± 0.19 %ID/g in data set [1] (bone); 0.24 ± 0.13 %ID/g in data set [1] (brain); 2.52 ± 0.49 %ID/g in data set [1] (heart); 3.06 ± 1.82 %ID/g in data set [1] (kidneys); 0.06 ± 0.06 %ID/g in data set [1] (large intestine). Also, the tissue uptake at 0.5 h in data set [1] (liver) is 13.5 ± 6.18 %ID/g; in data set [1] (lungs), 4.27 ± 1.06 %ID/g; in data set [1] (muscle) it was 0.16 ± 0.06 %ID/g; in data set [1] (skin) it was 0.57 ± 0.17 %ID/g; in data set [1] (small intestine) it was 0.43 ± 0.09 %ID/g; in data set [1] (spleen) it was 1.29 ± 0.61 %ID/g. For the same molecule, the tissue uptake at 0.5 h in data set [1] (stomach) was 0.34 ± 0.09 %ID/g; in data set [1] (thyroid) it was 0.89 ± 0.17 %ID/g; in data set [1] (tumor) it was 1.8 ± 0.75 %ID/g. In addition, the tissue uptake at 2 h in data set [1] (bladder) amounted to 0.58 ± 0.34 %ID/g; in data set [1] (blood), 6.84 ± 1.92 %ID/g; in data set [1] (bone), 0.33 ± 0.23 %ID/g; in data set [1] (brain) it was 0.25 ± 0.08 %ID/g; in data set [1] (heart), 2.44 ± 0.49 %ID/g; in data set [1] (kidneys), 2.54 ± 0.5 %ID/g. Moreover, the tissue uptake at 2 h in data set [1] (large intestine) amounted to 0.24 ± 0.2 %ID/g; in data set [1] (liver), 18.4 ± 1.45 %ID/g; in data set [1] (lungs) it was 2.72 ± 1.16 %ID/g; in data set [1] (muscle) it was 0.24 ± 0.07 %ID/g; in data set [1] (skin) it was 0.88 ± 0.18 %ID/g; in data set [1] (small intestine), 2.17 ± 0.99 %ID/g. For the same molecule, the tissue uptake at 2 h came out at 1.8 ± 0.65 %ID/g in data set [1] (spleen), 0.53 ± 0.17 %ID/g in data set [1] (stomach) and 1.14 ± 0.43 %ID/g in data set [1] (thyroid). In addition, the tissue uptake at 6 h in data set [1] (bladder) amounted to 0.95 ± 0.78 %ID/g; in data set [1] (blood), 5.12 ± 0.9 %ID/g; in data set [1] (bone), 0.29 ± 0.2 %ID/g; in data set [1] (brain) it was 0.2 ± 0.06 %ID/g; in data set [1] (heart), 2.14 ± 0.38 %ID/g; in data set [1] (kidneys), 2.5 ± 0.48 %ID/g. The tissue uptake at 6 h in data set [1] (large intestine) stood at 4.44 ± 1.9 %ID/g; in data set [1] (liver), 11.4 ± 4.46 %ID/g; in data set [1] (lungs), 2.49 ± 1.17 %ID/g; in data set [1] (muscle), 0.25 ± 0.11 %ID/g; in data set [1] (skin), 1.22 ± 0.47 %ID/g; in data set [1] (small intestine), 3.84 ± 1.29 %ID/g. In addition, the tissue uptake at 6 h came out at 1.99 ± 0.44 %ID/g in data set [1] (spleen), 1.9 ± 1.15 %ID/g in data set [1] (stomach), 1.19 ± 0.36 %ID/g in data set [1] (thyroid) and 2.11 ± 0.29 %ID/g in data set [1] (tumor). Also, the tissue uptake at 24 h in data set [1] (bladder) came out at 0.29 ± 0.09 %ID/g; in data set [1] (blood), 0.62 ± 0.2 %ID/g; in data set [1] (bone) it was 0.16 ± 0.04 %ID/g; in data set [1] (brain) it was 0.02 ± 0.01 %ID/g; in data set [1] (heart), 0.37 ± 0.08 %ID/g; in data set [1] (kidneys), 0.63 ± 0.12 %ID/g. The tissue uptake at 24 h is 1.87 ± 1.29 %ID/g in data set [1] (large intestine); 4.72 ± 2.84 %ID/g in data set [1] (liver); 0.33 ± 0.19 %ID/g in data set [1] (lungs); 0.16 ± 0.09 %ID/g in data set [1] (muscle); 0.52 ± 0.13 %ID/g in data set [1] (skin); 0.86 ± 0.35 %ID/g in data set [1] (small intestine). The tissue uptake at 24 h in data set [1] (spleen) was found to be 0.58 ± 0.24 %ID/g; in data set [1] (stomach), 0.84 ± 0.43 %ID/g; in data set [1] (thyroid) it was 0.27 ± 0.14 %ID/g; in data set [1] (tumor), 0.36 ± 0.12 %ID/g.
For the molecule `CC(=O)N[C@@H](CCCCNC(=O)c1cccc(I)c1)C(=O)NCCCCCC(=O)N[C@H](C(=O)N[C@@H](CO)C(=O)N[C@@H](Cc1ccccc1)C(=O)N[C@]1(C)CCCCCCC=CCCC[C@@](C)(C(=O)N[C@@H](CCC(=O)O)C(=O)N[C@@H](CC(N)=O)C(=O)N[C@@H](Cc2ccccc2)C(N)=O)NC(=O)[C@H](CC(C)C)NC(=O)[C@H](CC(C)C)NC(=O)[C@H](C)NC(=O)[C@H](Cc2c[nH]c3ccccc23)NC(=O)[C@H](Cc2ccc(O)cc2)NC(=O)[C@H](CCC(=O)O)NC1=O)[C@@H](C)O` [[^125I]SIB-VIP116] [listing 2 of 2 here], the “blocking of cell uptake” value in data set [4] is recorded as over 85%. Besides, the Blood radioactivity in data set [5] (30 min after i.v. injection, n = 5) was determined as 8.33 ± 1.18 %ID/g. Further, the “radioactivity found in the urine” value in data set [5] (2 h after i.v. injection (data not shown)) is at most 0.93 % ID. For the same molecule, in data set [5] (2 h after i.v. injection, n = 5), the “Tumor uptake (SJSA-1 xenograft)” value is reported as 2.19 ± 0.56 %ID/g.
